Test [1] has as its target T1, human leukocyte elastase (HLE) (Homo sapiens, UniProt P08246).
T1 sequence (P08246 30-267): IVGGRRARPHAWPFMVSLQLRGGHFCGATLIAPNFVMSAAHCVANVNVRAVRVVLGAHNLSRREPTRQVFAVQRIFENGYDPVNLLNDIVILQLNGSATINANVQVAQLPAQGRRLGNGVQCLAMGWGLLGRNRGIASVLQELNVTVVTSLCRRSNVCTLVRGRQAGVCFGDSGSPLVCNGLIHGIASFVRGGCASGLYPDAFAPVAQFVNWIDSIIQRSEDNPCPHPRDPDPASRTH
The experiment in a line: HLE inhibition, MeO-Suc-Ala-Ala-Pro-Val-NA hydrolysis. It is filed as biochemical. Conditions: for IC50: Table 4, Z-Leu--AA--CONH-R; for Ki: Table 4, in brackets under the IC50. The procedure, abridged:
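Reversible inhibition tested with inhibitor (in Me2SO) and substrate in 0.1 M Hepes, 0.5 M NaCl, pH 7.5; reaction started by enzyme. Cathepsin G used Suc-Val-Pro-Phe-NA, HLE used MeO-Suc-Ala-Ala-Pro-Val-NA; 4-nitroanilide release followed at 410 nm.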

Test [2] has as its target T2, Human leukocyte cathepsin G (Homo sapiens, UniProt P08311).
T2 sequence (P08311 21-255): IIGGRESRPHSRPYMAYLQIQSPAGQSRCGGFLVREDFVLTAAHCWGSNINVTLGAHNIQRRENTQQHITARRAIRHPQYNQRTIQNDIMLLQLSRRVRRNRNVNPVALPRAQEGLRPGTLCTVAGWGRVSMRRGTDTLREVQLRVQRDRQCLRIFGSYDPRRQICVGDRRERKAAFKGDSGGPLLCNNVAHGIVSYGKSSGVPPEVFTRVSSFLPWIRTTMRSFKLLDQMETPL
The experiment in a line: Cathepsin G inhibition, Suc-Val-Pro-Phe-NA hydrolysis. It is filed as biochemical. Conditions: for IC50: Table 4, Z-Leu--AA--CONH-R; for Ki: Table 4, in brackets under the IC50, read-out: KI Cat G. The protocol:
Peptide α-ketoamides were assayed as reversible enzyme inhibitors. Various concentrations of inhibitors in Me2 SO were added to the assay mixture which contained buffer and substrate. The reaction was started by the addition of the enzyme and the hydrolysis rates were followed spectrophotometrically or fluorimetrically.
A 0.1M Hepes, 0.5M NaCl, pH 7.5 buffer was utilized for human leukocyte elastase (HLE), porcine pancreatic elastase (PPE), chymotrypsin and cathepsin G. A 0.1 Hepes, 0.01 M CaCl2, pH 7.5 buffer was utilized for trypsin, plasmin, and coagulation enzymes. A 50 mM Tris.HCl, 2 mM EDTA, 5 mM cysteine, pH 7.5 was used as a buffer for papain. A 88 mM KH2 PO4, 12 mM Na2 HPO4, 1.33 mM EDTA, 2.7 mM cysteine, pH 6.0 solution was used as a buffer for cathepsin B. A 20 mM Hepes, 10 mM CaCl2, 10 mM mercatoethanol, pH 7.2 buffer was utilized for calpain I and calpain II.
HLE and PPE were assayed with MeO-Suc-Ala-Ala-Pro-Val-NA and Suc-Ala-Ala-Ala-NA, respectively Nakajima et al., J. Biol. Chem. 254, 4027-4032 (1979); incorporated herein by reference!. Human leukocyte cathepsin G and chymotrypsin Aα were assayed with Suc-Val-Pro-Phe-NA Tanaka et al., Biochemistry 24, 2040-2047 (1985); incorporated herein by reference!. The hydrolysis of peptide 4-nitroanilides was measured at 410 nm ε410 =8800 M^-1 cm^-1; Erlanger et al., Arch. Biochem. Biophys. 95, pp 271-278 (1961); incorporated herein by reference!. Trypsin, thrombin, human plasma kallikrein, porcine pancreatic kallikrein, human factor XIa, and human plasmin were assayed with Z-Arg-SBzl or Z-Gly-Arg-SBu-i McRae et al., Biochemistry 20, 7196-7206 (1981); incorporated herein by reference!. All peptide thioester hydrolysis rates were measured with assay mixtures containing 4,4'-dithiodipyridine ε324 =19800 M^-1 cm^-1; Grasetti & Murray, Arch. Biochem. Biophys. 119, 41-49 (1967); incorporated herein by reference!.

One may read the IC50 as the concentration at which inhibition is half-maximal. A low value points to inhibition by little substance. For the molecule `CCCCCCCNC(=O)C(=O)C(CC)NC(=O)C(CC(C)C)NC(=O)OCc1ccccc1` (stereo not drawn) [Z-Leu-Abu-CONH-C7 H15], the results for the IC50 in test [1] and in test [2] were 52 µM and greater than 116 µM, respectively.
For `CCCCCCCCNC(=O)C(=O)C(CC)NC(=O)C(CC(C)C)NC(=O)OCc1ccccc1` (stereo not drawn) [Z-Leu-Abu-CONH-C8 H17], in that order: 45 µM and greater than 217 µM.
As for `CCCCCCCCCNC(=O)C(=O)C(CC)NC(=O)C(CC(C)C)NC(=O)OCc1ccccc1` (stereo not drawn) [Z-Leu-Abu-CONH-C9 H19], the half-maximal inhibitory concentration (IC50) turned out to be 78 µM in test [1] and 150 µM in test [2].
In the case of `CCC(NC(=O)C(CC(C)C)NC(=O)OCc1ccccc1)C(=O)C(N)=O` (stereo not drawn) [Z-Leu-Abu-CONH-H], the results for the half-inhibitory concentration (IC50) in test [1] and in test [2] were greater than 120 µM and greater than 217 µM, respectively.
For `CCC(NC(=O)C(CC(C)C)NC(=O)OCc1ccccc1)C(=O)C(=O)NCC(C)C` (stereo not drawn) [Z-Leu-Abu-CONH-i-Bu], in that order: 78 µM and 134 µM.
For `CCCCNC(=O)C(=O)C(CC)NC(=O)C(CC(C)C)NC(=O)OCc1ccccc1` (stereo not drawn) [Z-Leu-Abu-CONH-n-Bu] the same measures were 63 µM and 148 µM.
For `CCCNC(=O)C(=O)C(CC)NC(=O)C(CC(C)C)NC(=O)OCc1ccccc1` (stereo not drawn) [Z-Leu-Abu-CONH-n-Pr] the same measures were greater than 120 µM and greater than 217 µM.
In the case of `CC(C)CC(NC(=O)OCc1ccccc1)C(=O)NC(Cc1ccccc1)C(=O)C(=O)NCCc1ccccc1` (stereo not drawn) [Z-Leu-Phe-CONH-(CH2)2 Ph], the IC50 was found to be 24 µM in test [1] and 112 µM in test [2].
For `CC(C)CC(NC(=O)OCc1ccccc1)C(=O)NC(Cc1ccccc1)C(=O)C(=O)NCC(O)c1ccc(OCc2ccccc2)cc1` (stereo not drawn) [Z-Leu-Phe-CONH--CH2 CH(OH)C6 H4 (4-OCH2 Ph)] the same measures were 40 µM and 58 µM.
For `CC(C)C[C@H](NC(=O)OCc1ccccc1)C(=O)N[C@@H](Cc1ccccc1)C(=O)C(=O)NCC(O)c1ccc(OCc2ccccc2)c(OCc2ccccc2)c1` (stereo partly drawn) [Z-Leu-Phe-CONH-C6 H3 (3,4-(OCH2 Ph)2), Z-Leu-Phe-CONH--CH2 CH(OH)C6 H3 (3,4-(OCH2 Ph)2)], in that order: 22 µM and 66 µM.
In the case of `CC(C)CC(NC(=O)OCc1ccccc1)C(=O)NC(Cc1ccccc1)C(=O)C(=O)NCc1ccccc1` (stereo not drawn) [Z-Leu-Phe-CONH-CH2 Ph], the IC50 came to 40 µM in test [1] and 63 µM in test [2].
`CCNC(=O)C(=O)[C@H](Cc1ccccc1)NC(=O)[C@H](CC(C)C)NC(=O)OCc1ccccc1` [Z-Leu-Phe-CONH-Et, Z-Leu-Phe-CO--NH-Et]: the IC50 is 74 µM in test [1] and 91 µM in test [2].
For `CC(C)C[C@H](NC(=O)OCc1ccccc1)C(=O)N[C@@H](Cc1ccccc1)C(=O)C(N)=O` [Z-Leu-Phe-CONH-H], in that order: 100 µM and 80 µM.
The Ki is a dissociation constant, usually derived from enzyme kinetics or from competition with a known ligand. Consider `CC(C)CNC(=O)C(=O)C(Cc1ccccc1)NC(=O)C(CC(C)C)NC(=O)OCc1ccccc1` (stereo not drawn) [Z-Leu-Phe-CONH-i-Bu], for which, in test [1], it took 20 µM to reach half-maximal inhibition (IC50) and the affinity corresponds to a Ki of 10 µM. Further, in test [2], the IC50 is 45 µM and the inhibition constant Ki was 21 µM.
Take `CCCCNC(=O)C(=O)C(Cc1ccccc1)NC(=O)C(CC(C)C)NC(=O)OCc1ccccc1` (stereo not drawn) [Z-Leu-Phe-CONH-n-Bu]: in test [1], the IC50 amounted to 16 µM and the Ki was 11 µM. Besides, in test [2], 68 µM corresponded to half-maximal inhibition (IC50) and the Ki is 4.9 µM.
For `CCCNC(=O)C(=O)C(Cc1ccccc1)NC(=O)C(CC(C)C)NC(=O)OCc1ccccc1` (stereo not drawn) [Z-Leu-Phe-CONH-n-Pr], the values for the IC50 in test [1] and in test [2] were 44 µM and 65 µM, respectively.
For the molecule `CCC(C)NC(=O)C(=O)C(Cc1ccccc1)NC(=O)C(CC(C)C)NC(=O)OCc1ccccc1` (stereo not drawn) [Z-Leu-Phe-CONH-sec-Bu], the half-inhibitory concentration (IC50) in test [1] came to 50 µM; in test [2] it was 128 µM.
For “Z-Leu-Phe-CONH--CH2 CH(OH)C6 H4 (4-OPh) [Z-Leu-Phe-CONH-CH2 CH(OH)-C6 H4 (4-OPh)]”, in that order: 32 µM and greater than 102 µM.

Source of the values: patent US5514694A, “Peptidyl ketoamides” (Georgia Tech Research Corp, priority 1993, dated 1996).
